Measurements taken from paper PMC8510013, “Active Flavonoids from Colubrina greggii var. greggii S. Watson against Clinical Isolates of Candida spp” (Molecules, 2021).
≈ marks a conversion by molar mass, not a printed value. Where two headings read alike, the source gives them in different places.

Experiments:
C. glabrata = assay: Broth microdilution antifungal assay (CLSI M27-A2), clinical isolates; assay type: cell-based, Candida glabrata
Description: (§1) Clinical isolates were provided by the Microbiology Department of the Medical School, UANL: isolates 97 and 98 of C. albicans, isolates 83 and 84 of C. glabrata, isolates 95 and 96 of C. parapsilosis, isolates 105 and 166 of C. tropicalis, and isolates 137 and 168 of C. krusei.
(§2) Inoculates from the above-mentioned isolates were prepared and growing on Sabouraud agar. The extracts were tested using microdilution assay according to the protocol M27-A2 defined by the Clinical Laboratory Standards Institute. Two clinical isolates were used for each species of Candida, and each test was made in duplicate. Isolates 83 and 84 of C. glabrata are resistant strains to fluconazole. Serial two-fold dilutions ranging from 2 to 500 μg/mL were made for all extracts, fractions, and isolated compounds. The minimal inhibitory concentration (MIC) was defined as the lowest tested extract concentration that inhibits 100% of organism growth compared to the growth of the drug-free control.

C. krusei [1] = details: C. krusei ATCC 20298; cited from earlier work
C. krusei [2] = assay: Broth microdilution antifungal assay (CLSI M27-A2), clinical isolates; assay type: cell-based, Candida krusei
Description: as §1, §2

Candida albicans = assay: as above; assay type: cell-based
Description: as §1, §2

[3] = In vitro cytotoxic assay on Vero cell line (MTT); assay type: cell-based; details: African green monkey, Vero cells, mean (n = 3) ± SD
Description: The cytotoxicity assay was performed by the 3-(4,5-dimethylthiazol-2-yl) 2,5-diphenyltetrazolium bromide (MTT) assay as previously described. The Vero cell line was maintained in DMEM supplemented with 2% FBS, streptomycin, and penicillin at 1%. All cell cultures were incubated at 37 °C in a humidified atmosphere of 5% CO2. Cells were harvested, counted, and transferred into 96 well plates and incubated for 24 h prior to the addition of test compounds. Serial dilutions of test samples were prepared by dissolving compounds in DMSO followed by dilution with DMEM to yield the final DMSO concentration in the assay well as 1%. Stock solutions of fractions and compounds 1, 2, and 3 were prepared at […] and diluted further to yield concentrations ranging from 2000–15.6 μg/mL. The plates were incubated for 48 h. MTT (3-[4,5-dimethylthiazol-2-yl]-2,5-diphenyltetrazolium bromide) (5 mg) was dissolved in 1 mL of Phosphate Buffer Solution (PBS) and 10 μL of it was added to each of the 96 wells. The plates were incubated at 37 °C for 3 h. The solution in each well-containing media, unbound MTT and dead cells were removed by suction and 100 μL of DMSO was added to each well. The plates were then shaken and optical density was recorded using a microplate reader at 540 nm. Doxorubicin was used as positive control and DMSO as solvent control. The CC50 was determined as the concentration of extract required reducing cell viability by 50%, taking as 100%, the untreated cells. The experiments were performed in triplicate for each extract. In parallel, we performed the same experiment using untreated cells as a control.

C. tropicalis [4] = assay: Broth microdilution antifungal assay (CLSI M27-A2), clinical isolates; assay type: cell-based, Candida tropicalis
Description: as §1, §2

C. parapsilosis [5] = assay: as above; assay type: cell-based, Candida parapsilosis
Description: as §1, §2

C. tropicalis [6] = system: C. tropicalis; set-up: method as in doi:10.1016/j.phytol.2015.02.006; details: C. tropicalis ATCC 750; cited from earlier work
[7] = Brine shrimp lethality bioassay; details: Artemia salina, in vivo; 24 h counts, mean (n = 3) ± SD
Description: In order to evaluate the toxicity of the compounds with antifungal activity obtained during separation, a test of lethality to Artemia salina brine shrimp was made. Concentrations of 1, 10, 100, and 500 ppm of each active fraction and each compound were tested. […] LC50 values greater than 200 ppm were considered non-toxic.

Candida glabrata = details: cited from earlier work
C. parapsilosis [8] = details: C. parapsilosis ATCC 20019; cited from earlier work
C. albicans = details: cited from earlier work
[9] = Nakaseomyces glabratus, C. glabrata, isolate not stated, read-out: MIC
[10] = Nakaseomyces glabratus, Cg isolate 83, fluconazole-resistant clinical isolate, read-out: MIC
[11] = Nakaseomyces glabratus, Cg isolate 84, fluconazole-resistant clinical isolate, read-out: MIC
[12] = Pichia kudriavzevii, Ck isolate 137, read-out: MIC
[13] = Pichia kudriavzevii, Ck isolate 168, read-out: MIC
[14] = Candida albicans, Ca isolate 97, read-out: MIC
[15] = Candida tropicalis, Ct isolate 105, read-out: MIC
[16] = Lodderomyces parapsilosis, Cp isolate 95, read-out: MIC
[17] = Lodderomyces parapsilosis, Cp isolate 96, read-out: MIC

| Compound | MIC (Candida albicans; Ca isolate 98) [µg/mL] | CC50 at 48 h [3] [µg/mL] | MIC (C. tropicalis [4]; Ct isolate 166) [µg/mL] | LC50 at 24 h [7] [µg/mL] | MIC (C. glabrata; [9]) [µg/mL] | MIC (C. glabrata; [10]) [µg/mL] | MIC (C. glabrata; [11]) [µg/mL] | MIC (C. krusei [2]; [12]) [µg/mL] | MIC (C. krusei [2]; [13]) [µg/mL] | MIC (Candida albicans; [14]) [µg/mL] | MIC (C. tropicalis [4]; [15]) [µg/mL] | MIC (C. parapsilosis [5]; [16]) [µg/mL] | MIC (C. parapsilosis [5]; [17]) [µg/mL] | further results |
| --- | --- | --- | --- | --- | --- | --- | --- | --- | --- | --- | --- | --- | --- | --- |
| C[C@@H]1O[C@@H](Oc2c(-c3ccc(O)c(O)c3)oc3cc(O)cc(O)c3c2=O)[C@H](O)[C@H](O)[C@H]1O [Compound 1, quercetin 3-O-α-L-rhamnoside] | 500 (≈ 1120 µM) | 1660 ± 81 (≈ 3700 µM) | >500 | > 500 |  |  |  |  |  |  |  |  |  | MIC (C. glabrata; Cg isolate 83, fluconazole-resistant clinical isolate): 16 µg/mL (≈ 35.7 µM); MIC (C. glabrata; Cg isolate 84, fluconazole-resistant clinical isolate): 16 µg/mL (≈ 35.7 µM); MIC (C. glabrata; Nakaseomyces glabratus): 16 µg/mL (≈ 35.7 µM); MIC (C. krusei [1]): below 250 μg/mL; MIC (C. krusei [2]; Ck isolate 137): 500 µg/mL (≈ 1120 µM); MIC (C. krusei [2]; Ck isolate 168): 500 µg/mL (≈ 1120 µM); MIC (C. krusei [2]; Pichia kudriavzevii): 500 µg/mL (≈ 1120 µM); MIC (Candida albicans; Ca isolate 97): 500 µg/mL (≈ 1120 µM); MIC (Candida albicans; Candida albicans): 500 µg/mL (≈ 1120 µM); MIC (C. tropicalis [4]; Candida tropicalis): > 500 µg/mL; MIC (C. parapsilosis [5]; Cp isolate 95): 125 µg/mL (≈ 279 µM); MIC (C. parapsilosis [5]; Cp isolate 96): 125 µg/mL (≈ 279 µM); MIC (C. parapsilosis [5]; Lodderomyces parapsilosis): 125 µg/mL (≈ 279 µM); MIC (C. tropicalis [6]): below 250 μg/mL; MIC (Candida glabrata; isolates 510, 493, 482, 531 of C. glabrata): 7.8 µg/mL (≈ 17.4 µM); MIC (C. parapsilosis [8]): below 250 μg/mL; MIC (C. albicans; C. albicans ATCC 18804): below 250 μg/mL |
| C[C@@H]1O[C@@H](Oc2c(-c3ccc(O)cc3)oc3cc(O)cc(O)c3c2=O)[C@H](O[C@@H]2OC[C@@H](O)[C@H](O)[C@H]2O)[C@H](O)[C@H]1O [Compound 3, kaempferol 3-O-α-L-rhamnopyranosyl-L-(2→1)-O-β-xylopyranoside] | >500 | > 2000 | >500 | 254.8 ± 0.024 (≈ 451 µM) | 16 (≈ 28.3 µM) | 16 (≈ 28.3 µM) | 16 (≈ 28.3 µM) | > 500 | > 500 | > 500 | > 500 | > 500 | > 500 |  |
| Kaempferol-3-O-rutinoside [reference compound] |  |  |  |  |  |  |  |  |  |  |  |  |  | MIC (C. albicans; Candida albicans ATCC 14053 and ATCC10231): 500 µg/mL |
| C[C@@H]1O[C@@H](Oc2c(-c3ccc(O)c(O)c3)oc3cc(O)cc(O)c3c2=O)[C@H](O[C@@H]2OC[C@@H](O)[C@H](O)[C@H]2O)[C@H](O)[C@H]1O [Compound 2, quercetin 3-O-α-L-rhamnopyranosyl-L-(2→1)-O-β-xylopyranoside] | >500 | > 2000 | >500 | 322.8 ± 0.009 (≈ 556 µM) | 63 (≈ 109 µM) | 63 (≈ 109 µM) | 63 (≈ 109 µM) | > 500 | > 500 | > 500 | > 500 | > 500 | > 500 |  |
| OC(Cn1cncn1)(Cn1cncn1)c1ccc(F)cc1F [Fluconazol, reference compound] | 4 (≈ 13.1 µM) |  | 2 (≈ 6.53 µM) |  |  | 32 (≈ 104 µM) | 63 (≈ 206 µM) | 32 (≈ 104 µM) | 4 (≈ 13.1 µM) | 4 (≈ 13.1 µM) | 2 (≈ 6.53 µM) | 0.5 (≈ 1.63 µM) | 1 (≈ 3.27 µM) |  |
| O=c1c(O)c(-c2ccc(O)cc2)oc2cc(O)cc(O)c12 [kaempferol, reference compound] |  |  |  |  |  |  |  |  |  |  |  |  |  | MIC (Candida glabrata; six clinical isolates of Candida glabrata including one resistant to fluconazole): 31.5 µg/mL (≈ 110 µM) |
